In US12012394B2, “Alpha-synuclein ligands” (Washington University, priority 2018, dated 2024):
Values joined by “and” are separate entries in the source; they are usually repeats but may differ in a detail not shown here. Identical values can stand only once.

Key:
α-synuclein fibrils = α-synuclein fibrils (Homo sapiens (Human), UniProt P37840); assay: Thioflavin T fluorescence competitive assay; settings: for Ki: read-out: Thioflavin T assay Ki, competition with ThT on recombinant α-synuclein fibrils, at least three experiments
Fibrils 4174 = Fibrils 4174 (Homo sapiens, UniProt P37840); assay: 3H radioligand competition, Fibrils 4174; type: binding; settings: hot concentration 2 nM
Protocol: (§1) A series of compounds were synthesized and the Ki (nM) in the presence of Fibrils 4174, PD-seeded fibrils (using Tg-1-90B as the radioligand), AD Tissue 6843 and/or AD Tissue 2846 was determined. In each experiment, the “hot” concentration was 2 nM.

AD Tissue 2846 = assay: 3H radioligand competition, AD Tissue 2846; type: binding; settings: hot concentration 2 nM
Protocol: as §1

AD Tissue 6843 = assay: 3H radioligand competition, AD Tissue 6843; type: binding; settings: hot concentration 2 nM
Protocol: as §1

PD-seeded fibrils [1] = target: T1, PD-seeded fibrils (Homo sapiens (Human), UniProt P37840); assay: Radioligand competition, PD-seeded fibrils (Tg-1-90B as radioligand); type: binding; settings: PD-seeded fibrils (Tg-1-90B radioligand); hot concentration 2 nM
Protocol: as §1

PD-seeded fibrils [2] = target: T1, PD-seeded fibrils; assay: Heterologous competition binding assay with [18F]TZ61-44 as radioligand; settings: radioligand [18F]TZ61-44, 25 nM PD-seeded fibrils; for Ki: Cheng-Prusoff from EC50
Protocol: The equilibrium inhibitor constant (Ki) of a series of compounds was measured using heterologous radioactive binding assays with [^18F]TZ61-44, […], or [^125I]TZ61-84 as the screening radioligands. EC50 values for each compound were determined by fitting the data to the equation Y=Bottom+(Top−Bottom)/(1+(X−Log EC50)^−Hillcoefficient) using nonlinear regression by Kaleidagraph software, where Top and Bottom are the Y values for the top and bottom plateaus of the binding curve. The Ki values were derived from the EC50 values using the Cheng-Prusoff equation: Ki=EC50/(1+[radioligand]/Kd). FIGS. 5A-5E show the inhibition curves for TG-1-90B, TZ55-101, TZ61-84, TZ55-107, and TZ55-81 using [^18F]TZ61-44 as the radioligand. FIG. 11B-C show the inhibition curves for two separate experiments on PD fibrils for TZ55-101 using […] as the radioligand. FIGS. 12A-12F show the inhibition curves for TZ66-3, TZ64-015, TZ64-016, TZ64-018, TZ64-019, and TZ64-020 using [^18F]TZ61-44 as the radioligand. FIGS. 13A-13D show the inhibition curves for TZ66-9, TZ66-8, and TZ55-107 using [^18F]TZ61-44 as the radioligand.

[3] = MicroPET studies in the brain of nonhuman primate; type: in vivo; settings: male adult cynomolgus macaca
Protocol: 9.93 mCi of [^18F]TZ61-44 was injected into a male adult cynomolgus macaca (9.25 Kg) 10.57 mCi of [^11C]TZ55-107 was injected into was injected into a male adult cynomolgus macaca (9.40 Kg) A simplified reference tissue model (SRTM) and spatially-constraint linear regression algorithm was used to generate R1 and DVR images (FIGS. 18A and 18B).
FIGS. 19A and 19B graphically depict the uptake of labeled TZ55-107 and TZ61-44 in the animals. [^18F]TZ61-44 had highest cortical uptake (SUV) of ˜3.48 at 4 min and the uptake ratio at 4 min versus 120 min reached ˜4.2 (FIG. 19A); [^11C]TZ55-107 had highest cortical uptake of ˜6.40 at 4 min, and the uptake ratio at 4 min versus 120 min reached ˜6.30 (FIG. 19B).

[4] = target: Banner PD-seeded α-synuclein fibrils (Homo sapiens (Human), UniProt P37840); assay: Homologous competition radioligand binding assay, PD-seeded fibrils
Protocol: The equilibrium dissociation constant (Kd) for a series of compounds was determined using direct radioactive competitive binding assays (homologous or heterologous) with either recombinant α-synuclein fibrils or brain tissue homogenates from AD cases.
Recombinant protein was produced in E. coli using protocols based on previously described methods for α-synuclein [Giasson, B. I., et al., “Mutant and wild type human alpha-synucleins assemble into elongated filaments with distinct morphologies in vitro,” 1999, J Biol. Chem., 274:7619-7622; Huang, C., et al., “A new method for purification of recombinant human alpha-synuclein in Escherichia coli,” 2005, Protein Expr Purif, 42:173-177; Yu, L., et al, “Synthesis and in vitro evaluation of á-synuclein ligands,” 2012, Bioorg. Med. Chem., 20:4625-4634] and tau [Li, W., et al., “Characterization of two VQIXXK motifs for tau fibrillization in vitro,” 2006, Biochemistry, 45:15692-15701]. BL21(DE3)RIL E. coli were transformed with a pRK172 bacterial expression plasmid containing the human α-synuclein coding sequence. […]. Overnight cultures were centrifuged at 3,900×g for 10 min at 25° C. and the bacterial pellets were resuspended by gentle vortexing in 20 ml osmotic shock buffer (30 mM Tris-HCl, 2 mM EDTA, 40% Sucrose, pH 7.2) and then incubated at room temperature for 10 min. The cell suspension was then centrifuged at 8,000×g for 10 min at 25° C. and the pellet was resuspended in 22.5 ml cold H2O before adding 9.4 μl 2 M MgCl2 to each tube. The suspension was incubated on ice for 3 min prior to centrifugation at 20,000×g for 15 min at 4° C. After the supernatant was transferred to a fresh tube, streptomycin was added to a final concentration of 10 mg/ml and centrifuged at 20,000×g for 15 min at 4° C. The supernatant from this step was collected and dithiothreitol (DTT) and Tris-HCl pH 8.0 were added to final concentrations of 1 mM and 20 mM respectively, before boiling for 10 min to precipitate heat-sensitive proteins, which were pelleted at 20,000×g for 15 min at 4° C. The supernatant was collected and filtered through a 0.45 μm surfactant-free cellulose acetate filter (Corning) before loading onto a 1 ml DEAE Sepharose column equilibrated in 20 mM Tris-HCl pH 8.0, 1 mM EDTA, and 1 mM DTT. The DEAE column was washed with 20 mM Tris-HCl pH 8.0, 1 mM EDTA, 1 mM DTT before eluting α-synuclein protein in 20 mM Tris-HCl pH 8.0 buffer with 1 mM EDTA, 1 mM DTT and 0.3 M NaCl. Purified α-synuclein protein was dialyzed overnight in 10 mM Tris-HCl pH 7.6, 50 mM NaCl, 1 mM DTT.
Purified recombinant α-synuclein monomer (2 mg/ml) was incubated in 20 mM Tris-HCl, pH 8.0, 100 mM NaCl for 72 h at 37 C with shaking at 1000 rpm in an Eppendorf Thermomixer. […] The concentration of α-synuclein monomer in the supernatant was determined in a BCA protein assay according to the manufacturer's instructions, using a bovine serum albumin (BSA) standard curve. The measured decrease in α-synuclein monomer concentration was used to determine the concentration of fibrils in the 72 h fibril reaction mixture. […]
These direct binding assays used a fixed concentration of either fibrils or PD/AD tissue and the radioligand (e.g., [^18F]28) and varying concentration ranges of corresponding homologous non-radiolabeled standard reference compound. […] Reactions were incubated at 37° C. for 1 h before quantifying bound radioligand. […]

| EC50 (PD-seeded fibrils [2]) | Ki (PD-seeded fibrils [2]) | SMILES | Ki (α-synuclein fibrils) [nM] | also measured |
| --- | --- | --- | --- | --- |
|  |  | COc1ccc2nc(Nc3coc(C=O)c3)ccc2c1 [TZ64-91] | 18 | potency in Thioflavin T assay (α-synuclein fibrils): high potency |
|  |  | COc1cc(-c2nc(-c3ccc4cc(OC(C)C)ccc4n3)no2)ccn1 [Compound 30, 3-(6-Isopropoxyquinolin-2-yl)-5-(2-methoxypyridin-4-yl)-1,2,4-oxadiazole] | > 1000 |  |
|  |  | COc1ccc2nc(-c3csc(/C=N/O)c3)ccc2c1 [TZ66-16] | 11 | potency in Thioflavin T assay (α-synuclein fibrils): high potency |
|  |  | CC(C)Oc1ccc2nc(-c3noc(-c4ccn5ccnc5c4)n3)ccc2c1 [Compound 32, 5-(Imidazo[1,2-c]pyridin-7-yl)-3-(6-isopropoxyquinolin-2-yl)-1,2,4-oxadiazole] | > 1000 |  |
|  |  | COc1ccc2nc(-c3noc(-c4ccc5c(c4)OCO5)n3)ccc2c1 [TZ46-136] |  | Ki (Fibrils 4174): 162 nM |
|  |  | COc1ccc2nc(-c3coc(C=O)c3)ccc2c1 [TZ64-19] | 10.4 | potency in Thioflavin T assay (α-synuclein fibrils): high potency |
|  |  | COC(=O)c1cc(-c2ccc3cc(OC)ccc3n2)cs1 [TZ66-25] | 17 | potency in Thioflavin T assay (α-synuclein fibrils): high potency |
|  |  | COc1ccc2nc(-c3noc(-c4ccc5ncccc5c4)n3)ccc2c1 [TZ46-147] |  | Ki (AD Tissue 2846): 30 nM; Ki (AD Tissue 6843): 21 nM; Ki (PD-seeded fibrils [1]): 39 nM; Ki (Fibrils 4174): 96 nM |
| 73 nM | 68 nM | C=CCOCc1cc(-c2ccc3cc(OC)ccc3n2)cs1 [TZ66-8] |  |  |
|  |  | COc1cccc(-c2nc(-c3ccc4cc(OC)ccc4n3)no2)c1 [TZ46-139] |  | Ki (Fibrils 4174): 222 nM |
|  |  | COc1ccc(Nc2ccc3cc(Br)ccc3n2)cn1 [TZ64-105] | 10 | potency in Thioflavin T assay (α-synuclein fibrils): high potency |
| 37 nM | 34 nM | COc1ccc2nc(-c3csc(C#N)c3)ccc2c1 [TZ64-020] |  |  |
| 46 nM | 43 nM | COc1ccc(Nc2ccc3c(F)cccc3n2)cn1 [TZ64-015] |  |  |
|  |  | COc1ccc2nc(-c3noc(-c4cocn4)n3)ccc2c1 [TZ46-120] |  | Ki (Fibrils 4174): 646 nM |
|  |  | COc1ccc2nc(-c3noc(-c4cscn4)n3)ccc2c1 [TZ46-117] |  | Ki (Fibrils 4174): 156 nM |
| 127 nM | 119 nM | COc1ccc2nc(-c3csc(C(C)=O)c3)ccc2c1 [TZ64-018] |  |  |

| EC50 (PD-seeded fibrils [2]) | Ki (PD-seeded fibrils [2]) | SMILES | Ki (α-synuclein fibrils) [nM] | also measured |
| --- | --- | --- | --- | --- |
|  |  | COc1ccc2nc(-c3noc(-c4ccn5ccnc5c4)n3)ccc2c1 [Compound 31, 5-(Imidazo[1,2-c]pyridin-7-yl)-3-(6-methoxyquinolin-2-yl)-1,2,4-oxadiazole] | > 1000 |  |
| 45 nM | 42 nM | COc1ccc(Nc2ccc3cccc(F)c3n2)cn1 [TZ64-016] |  |  |
|  |  | COc1ccc2nc(-c3noc(-c4ccnc(OC)c4)n3)ccc2c1 [Compound 27, 5-(2-Methoxypyridin-4-yl)-3-(6-methoxyquinolin-2-yl)-1,2,4-oxadiazole] | 630 |  |
|  |  | COCOc1ccc2nc(-c3noc(-c4ccnc(OC)c4)n3)ccc2c1 [Compound 29, 3-(6-(Methoxymethoxy)quinolin-2-yl)-5-(2-methoxypyridin-4-yl)-1,2,4-oxadiazole] | > 1000 |  |
|  |  | COc1ccc(Nc2ccc3c([N+](=O)[O-])cccc3n2)cn1 [TZ64-82] | 18 | potency in Thioflavin T assay (α-synuclein fibrils): high potency |
| 84 nM | 78 nM | COCc1cc(-c2ccc3cc(OC)ccc3n2)cs1 [TZ66-9] |  |  |
|  |  | FCCOc1ccc2nc(-c3noc(-c4ccn5ccnc5c4)n3)ccc2c1 [Compound 33, 3-(6-(2-Fluoroethoxy)quinolin-2-yl)-5-(imidazo[1,2-c]pyridin-7-yl)-1,2,4-oxadiazole] | > 1000 |  |
|  |  | COCOc1ccc2nc(-c3noc(-c4ccn5ccnc5c4)n3)ccc2c1 [Compound 34, 5-(Imidazo[1,2-c]pyridin-7-yl)-3-(6-(methoxymethoxy)-quinolin-2-yl)-1,2,4-oxadiazole] | > 1000 |  |
|  |  | COc1ccc(Nc2ccc3cc([N+](=O)[O-])ccc3n2)cn1 [TZ64-55] | 15 | potency in Thioflavin T assay (α-synuclein fibrils): high potency |
|  |  | COc1ccc2nc(-c3noc(-c4ccc(-n5ccnc5)cc4)n3)ccc2c1 [TZ46-155] |  | Ki (PD-seeded fibrils [1]): 230 nM |
|  |  | COc1ccc(Nc2ccc3cc(I)ccc3n2)cn1 [TZ64-102] | 12 | potency in Thioflavin T assay (α-synuclein fibrils): high potency |
| 29 nM | 27 nM | COc1ccc(Nc2ccc3cc(F)ccc3n2)cn1 [TZ64-013] |  |  |
| 24 nM and 36 nM | 22 nM and 34 nM | COc1ccc2nc(Nc3ccnc(OC)c3)ccc2c1 [TZ55-107] |  | highest cortical uptake (SUV) ([3]; brain cortex, at 4 min): ~6.40 SUV; uptake ratio at 4 min versus 120 min ([3]; brain cortex): ~6.30; blood brain barrier penetration [3]: able to penetrate the blood brain barrier; binding affinity towards PD / α-synuclein fibrils ([4]; preliminary / initial competitive binding assays): good binding affinity; selectivity ([4]; preliminary binding assays): moderate selectivity |
|  |  | COc1ccc2cc(-c3noc(-c4ccnc(F)c4)n3)ccc2c1 [TZ46-102] |  | Ki (Fibrils 4174): 203 nM |
| 78 nM | 73 nM | COc1ccc2nc(-c3csc(C(=O)O)c3)ccc2c1 [TZ66-3] |  |  |

| SMILES | EC50 (PD-seeded fibrils [2]) | Ki (PD-seeded fibrils [2]) | Ki (α-synuclein fibrils) [nM] | also measured |
| --- | --- | --- | --- | --- |
| COc1ccc2nc(-c3coc(C=O)c3)ccc2c1 [TZ64-019] | 28 nM | 27 nM |  |  |
